Measurements as given in patent US11400084B2 (BioTheryX, Inc., priority 2018, dated 2022).

Legend:
CK1α = biological target: T1, CK1α (Homo sapiens, UniProt P48729+Q96SW2); experiment: Western blot CK1α degradation assay in MV-4-11 cells; type: cell-based; conditions: 6-8 hours
T1 construct: endogenous in cells; host or cells: MV-4-11
Protocol: (§1) MV-4-11 cells were grown in RPMI 1640 media supplemented with 10% fetal bovine serum, streptomycin and penicillin.
(§2) Cells were cultured at approximately 10^6 cells per mL and incubated in DMSO or the indicated compound for 6-8 hours. Whole cell extracts were prepared using RIPA buffer according to manufacturer's protocol (Pierce). Briefly, 3×10^6 cells were washed once in PBS, the cell pellets were resuspended in RIPA buffer and allowed to incubate for 15 minutes on ice. Cells debris was removed by centrifugation and the cleared whole cell lysates were transferred to new tubes for further analysis.
(§3) For Western blot analysis, whole cell protein extracts were separated on 4-12% SDS-polyacrylamide gels, transferred to nitrocellulose and probed with the indicated primary antibodies. Membranes were subsequently washed and probed with the appropriate IRDye secondary antibodies (LI-COR). The signal was detected using the Odyssey Imaging System (LI-COR).
(§4) The following antibodies were used in these studies: Anti-eRF3/GSPT1: Abcam, ab126090 (Cambridge, Mass.); Anti-Ikaros: Abcam, ab191394 (Cambridge, Mass.); Anti-CK1α: Abcam, ab108296 (Cambridge, Mass.); β-actin (8H10D10) mouse monoclonal antibody: Cell Signaling Technology, #3700 (Danvers, Mass.); IRDye 680RD Goat anti-rabbit antibody: LI-COR, 926-68071 (Lincoln, Nebr.); IRDye 800CW Goat anti-mouse antibody: LI-COR, 926-32210 (Lincoln, Nebr.).
(§5) In each of Tables 1-3, the % degradation values are reported as “A”, “B”, “C”, or “D.” “A” represents a % degradation value of less than 25% (value<25%); “B” represents a % degradation value of equal to or more than 25% and less than 50% (25%≤value<50%); “C” represents a % degradation value of equal to or more than 50% and less than 75% (50%≤value<75%); and “D” represents a % degradation value of equal to or more than 75% (value≥75%).

PBMCs = experiment: Comparative study cell viability, LPS-induced PBMCs (CTG); type: cell-based; conditions: PBMC, LPS 18-24 hr, read-out: reduced cell viability IC50
Protocol: Frozen […] blood mononuclear cells (PBMCs) were purchased from AllCells. Cells were quick thawed, washed with RPMI-1640/10% FBS/1% Penicillin/1% Streptomycin and plated in 96 well plates at 200,000 cells/well. Cells were pretreated with DMSO or the indicated compound for 1 hr and then induced with 100 ng/mL lipopolysaccharide (LPS) for 18-24 hr. Following the incubation period, 100 μL of CTG reagent was added to each well. Plates were incubated on the shaker at RT for 2 min. Following a 10 min incubation without shaking, luminescence was measured using the Envision 2105 multimode plate reader.

MOLM-13 cells [1] = experiment: Comparative study cell viability, Molm-13 cells (CTG2, 3 days); type: cell-based; conditions: Homo sapiens, 72 h, read-out: reduced cell viability IC50
Protocol: (§6) Molm-13 and MV-4-11 cells (both leukemia cell lines) were cultured in RPMI 1640 media supplemented with 10% fetal bovine serum, streptomycin and penicillin, and were plated in white walled 96-well plates at 20,000 cells/well. THLE-2 cells (T-antigen immortalized human liver epithelial cells) were cultured using BEGM Bullet kit (Lonza CC-3170) supplemented with 10% fetal bovine serum, streptomycin and penicillin, and were plated in white walled 96-well plates 5000 cells/well. NHLF (normal human lung fibroblast) cells were cultured in DMEM media supplemented with 10% fetal bovine serum, streptomycin and penicillin, and were plated in white walled 96-well plates at 5000 cells/well. Cells were incubated in DMSO (control) or the indicated compounds for 3 days at 37° C. and 5% CO2. Following the incubation period, 100 μL of CellTiterGlow2 (CTG2) reagent (CellTiter-Glo®2 Luminescent Cell Viability Assay, Promega (Madison, Wis.)) was added to each well. Following a 10 minutes incubation with shaking, luminescence was measured using the Victor Wallac Luminometer or the Envision 2105 multimode plate reader.

MV-4-11 cells = experiment: Comparative study cell viability, MV-4-11 cells (CTG2, 3 days); type: cell-based; conditions: for IC50: Homo sapiens, MV4-11, 72 h, 3 days, read-out: reduced cell viability IC50; for IC50 concentration as fold of the IC50 concentration of Compound 1: relative to Compound 1
Protocol: as §6

IKAROS = biological target: T2, IKAROS (Homo sapiens, UniProt Q13422+Q96SW2); experiment: Western blot IKAROS degradation assay in MV-4-11 cells; type: cell-based; conditions: 6-8 hours
T2 construct: endogenous in cells; host or cells: MV-4-11
T2 sequence (Q13422 whole entry): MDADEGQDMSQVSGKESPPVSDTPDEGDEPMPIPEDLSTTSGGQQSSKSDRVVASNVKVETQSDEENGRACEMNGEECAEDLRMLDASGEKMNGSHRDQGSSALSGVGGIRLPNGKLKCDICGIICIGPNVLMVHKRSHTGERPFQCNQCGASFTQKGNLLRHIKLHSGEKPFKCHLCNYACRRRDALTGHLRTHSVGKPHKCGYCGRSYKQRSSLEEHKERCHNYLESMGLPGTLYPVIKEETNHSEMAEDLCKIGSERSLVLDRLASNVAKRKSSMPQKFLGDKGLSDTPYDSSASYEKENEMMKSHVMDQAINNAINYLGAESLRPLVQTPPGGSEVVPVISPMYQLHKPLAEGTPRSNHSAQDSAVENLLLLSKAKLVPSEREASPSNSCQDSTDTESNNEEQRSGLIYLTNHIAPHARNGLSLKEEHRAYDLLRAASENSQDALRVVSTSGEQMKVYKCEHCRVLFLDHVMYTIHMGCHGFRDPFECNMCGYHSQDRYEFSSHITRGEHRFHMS
T2 sequence (Q96SW2 whole entry): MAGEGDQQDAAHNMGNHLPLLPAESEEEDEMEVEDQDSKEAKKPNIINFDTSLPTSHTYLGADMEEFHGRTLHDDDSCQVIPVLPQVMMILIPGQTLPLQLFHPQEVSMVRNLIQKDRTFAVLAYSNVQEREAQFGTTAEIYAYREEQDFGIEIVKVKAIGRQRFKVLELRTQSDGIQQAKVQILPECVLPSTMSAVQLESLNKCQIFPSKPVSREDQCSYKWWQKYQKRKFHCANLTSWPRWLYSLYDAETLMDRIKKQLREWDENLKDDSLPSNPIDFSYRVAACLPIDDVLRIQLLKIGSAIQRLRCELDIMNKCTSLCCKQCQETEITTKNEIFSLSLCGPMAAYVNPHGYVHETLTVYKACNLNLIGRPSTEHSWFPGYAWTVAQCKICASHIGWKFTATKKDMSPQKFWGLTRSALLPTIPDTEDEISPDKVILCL
T2 sequence (Q16531 whole entry partner): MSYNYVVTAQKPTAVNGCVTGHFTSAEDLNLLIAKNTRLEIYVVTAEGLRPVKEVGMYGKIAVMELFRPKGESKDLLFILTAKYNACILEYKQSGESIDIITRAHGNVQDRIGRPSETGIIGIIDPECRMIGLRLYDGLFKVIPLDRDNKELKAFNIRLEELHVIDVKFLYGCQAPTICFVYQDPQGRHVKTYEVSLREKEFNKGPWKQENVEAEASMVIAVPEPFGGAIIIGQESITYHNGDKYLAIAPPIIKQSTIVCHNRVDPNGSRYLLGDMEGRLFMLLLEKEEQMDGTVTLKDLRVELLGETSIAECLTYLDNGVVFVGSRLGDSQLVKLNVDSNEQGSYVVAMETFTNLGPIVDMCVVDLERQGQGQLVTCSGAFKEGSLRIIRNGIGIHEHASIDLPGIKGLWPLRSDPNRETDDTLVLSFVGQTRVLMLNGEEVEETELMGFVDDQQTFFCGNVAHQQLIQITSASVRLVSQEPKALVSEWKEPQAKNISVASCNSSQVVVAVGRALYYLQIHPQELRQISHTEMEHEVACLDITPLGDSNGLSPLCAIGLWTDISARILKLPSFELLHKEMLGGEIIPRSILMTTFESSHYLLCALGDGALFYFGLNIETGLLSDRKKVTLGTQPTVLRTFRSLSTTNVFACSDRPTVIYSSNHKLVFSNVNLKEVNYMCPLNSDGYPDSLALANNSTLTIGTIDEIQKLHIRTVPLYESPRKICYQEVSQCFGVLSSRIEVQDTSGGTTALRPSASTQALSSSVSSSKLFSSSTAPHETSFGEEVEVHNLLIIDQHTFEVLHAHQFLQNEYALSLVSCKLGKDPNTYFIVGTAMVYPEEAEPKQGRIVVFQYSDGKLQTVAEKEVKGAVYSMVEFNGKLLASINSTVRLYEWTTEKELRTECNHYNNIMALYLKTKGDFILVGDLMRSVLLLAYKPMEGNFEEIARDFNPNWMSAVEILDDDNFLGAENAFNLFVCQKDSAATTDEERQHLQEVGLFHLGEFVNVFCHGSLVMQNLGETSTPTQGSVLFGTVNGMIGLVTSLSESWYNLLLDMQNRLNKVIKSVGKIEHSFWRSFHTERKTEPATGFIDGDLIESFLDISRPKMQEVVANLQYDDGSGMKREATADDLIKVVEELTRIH
Protocol: as §1, §2, §3, §4, §5

GSPT1 = biological target: T3, GSPT1 (Homo sapiens, UniProt P15170+Q96SW2); experiment: Western blot GSPT1 degradation assay in MV-4-11 cells; type: cell-based; conditions: for reduced levels of GSPT1: comparative study; for GSPT1 % Degradation at 1 μM: MV-4-11 cells, 6-8 hours
T3 construct: whole cell protein extracts were separated on 4-12% SDS-polyacrylamide gels; endogenous in cells; host or cells: MV-4-11
T3 sequence (P15170 whole entry): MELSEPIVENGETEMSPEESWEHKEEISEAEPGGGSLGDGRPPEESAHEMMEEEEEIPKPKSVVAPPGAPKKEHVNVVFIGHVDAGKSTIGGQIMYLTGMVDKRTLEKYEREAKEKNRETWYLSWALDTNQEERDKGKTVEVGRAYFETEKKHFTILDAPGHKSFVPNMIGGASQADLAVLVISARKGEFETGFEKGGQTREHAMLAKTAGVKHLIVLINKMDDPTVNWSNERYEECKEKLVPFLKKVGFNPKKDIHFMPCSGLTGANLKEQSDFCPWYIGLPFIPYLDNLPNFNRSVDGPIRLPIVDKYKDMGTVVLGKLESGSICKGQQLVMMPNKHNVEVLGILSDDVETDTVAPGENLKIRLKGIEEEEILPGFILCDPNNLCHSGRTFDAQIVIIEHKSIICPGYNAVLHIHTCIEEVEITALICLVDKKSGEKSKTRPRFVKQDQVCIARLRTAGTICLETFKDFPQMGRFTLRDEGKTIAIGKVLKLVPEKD
T3 sequence (Q96SW2 whole entry): as the sequence (Q96SW2 whole entry) above
T3 sequence (Q16531 whole entry partner): as the sequence (Q16531 whole entry partner) above
Protocol: as §1, §2, §3, §4, §5

MOLM-13 cells [2] = experiment: MOLM-13 cell viability assay (CellTiter-Glo 2, 3 days, 2500 cells/well); type: cell-based; conditions: Homo sapiens, MOLM-13, 72 h, percentage of DMSO control
Protocol: MOLM-13 cells were cultured in RPMI 1640 media supplemented with 10% fetal bovine serum, streptomycin and penicillin, and were plated in white walled 96-well plates at 2500 cells/well. Cells were incubated in DMSO (control) or the indicated compound for 3 days at 37° C. and 5% CO2. Following the incubation period, 100 μL of CellTiterGlow2 (CTG2) reagent (CellTiter-Glo®2 Luminescent Cell Viability Assay, Promega (Madison, Wis.)) was added to each well. Following a 10 minutes incubation with shaking, luminescence was measured using the EnVision Multimode plate reader.
The MOLM-13 cell viability values, measured as percentages of the DMSO control, are reported in Table 8 as “A”, “B”, “C”, or “D.” “A” represents a % viability value of less than 40% (value<40%). “B” represents a % viability value of equal to or more than 40% and less than 60% (40%≤value<60%). “C” represents a % viability value of equal to or more than 60% and less than 90% (60%≤value<90%). “D” represents a % viability value of equal or more than 90% (value≥90%).

NHLF cells = experiment: Comparative study cell viability, NHLF cells (CTG2, 3 days); type: cell-based; conditions: Homo sapiens, 72 h, read-out: reduced cell viability IC50
Protocol: as §6

THLE-2 cells = experiment: Comparative study cell viability, THLE-2 cells (CTG2, 3 days); type: cell-based, human; conditions: for IC50: Homo sapiens, 72 h, 3 days, read-out: reduced cell viability IC50; for IC50 concentration as fold of the IC50 concentration of Compound 1: relative to Compound 1
Protocol: as §6

TNFα = experiment: TNF-α inhibition assay, LPS-induced PBMCs or CD14+ monocytes, Meso Scale; type: cell-based; conditions: 100 ng/mL LPS 18-24 h
Protocol: (§7) Either frozen primary blood mononuclear cells (PBMCs) or frozen CD14+ mobilized peripheral blood monocytes were purchased from AllCells (PB003F, Normal Peripheral Blood MNC (Alameda, Calif.)). Cells were quick thawed, washed 1-time with RPMI-1640 (10% FBS/1% Pen-Strep) and plated in 96 well plates at 200,000 cells per well. Cells were pretreated with DMSO only or with the indicated compound for 1 h and then induced with 100 ng/mL lipopolysaccharide (LPS) for 18-24 h. The supernatant was analyzed for IL-1β, IL-6, and TNFα, using Meso Scale assay according to manufacturer's protocol. The negative control wells were treated with DMSO.

IL-2 = IL-2 fold-change assay, anti-CD3 stimulated PBMCs, Mesoscale; type: cell-based; conditions: Homo sapiens, PBMC, 24 h, fold difference from the DMSO control
Protocol: For the IL-2 analysis, 96 well plates were precoated with 1 μg/mL anti-human CD3 antibody (OKT3, eBioscience Inc., San Diego, Calif.). After washing with PBS, the indicated compound was added (50 μL/well) followed by PBMCs diluted at 3-4 million cells/mL (150 μL/well). Plates were incubated for 24 h and the supernatants collected for Mesoscale IL-2 analysis. IL-2 activity is measured as fold difference from the DMSO control.
In Table 7, the fold-change values are reported as “A”, “B”, “C”, or “D”. “A” represents a fold-change value of equal to or less than 1 (value≤1); “B” represents a fold-change value of more than 1 and equal to or less than 2 (1<value≤2); “C” represents a fold-change value of more than 2 and equal to or less than 3 (2<value≤3); and “D” represents a fold-change value of more than 3 (value>3).

IL-1β = IL-1β inhibition assay, LPS-induced PBMCs or CD14+ monocytes, Meso Scale; type: cell-based; conditions: 100 ng/mL LPS 18-24 h
Protocol: as §7

T1 sequence (P48729 whole entry): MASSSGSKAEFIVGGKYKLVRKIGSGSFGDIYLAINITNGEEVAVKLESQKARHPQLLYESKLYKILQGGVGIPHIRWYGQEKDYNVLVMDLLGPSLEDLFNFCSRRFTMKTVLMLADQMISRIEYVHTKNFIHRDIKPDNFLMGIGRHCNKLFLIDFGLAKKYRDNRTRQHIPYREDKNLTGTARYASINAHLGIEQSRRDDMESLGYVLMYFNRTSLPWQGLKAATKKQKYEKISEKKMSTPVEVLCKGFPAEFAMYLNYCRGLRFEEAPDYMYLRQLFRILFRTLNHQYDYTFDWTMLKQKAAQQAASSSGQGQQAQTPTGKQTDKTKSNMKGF
T1 sequence (Q96SW2 whole entry): as the sequence (Q96SW2 whole entry) above
T1 sequence (Q16531 whole entry partner): as the sequence (Q16531 whole entry partner) above

IC50 (MOLM-13 cells [1])	IC50 (MV-4-11 cells)	reduced levels of GSPT1 (GSPT1; 0.1 μM)	reduced levels of GSPT1 (GSPT1; 1 μM)	IC50 concentration as fold of the IC50 concentration of Compound 1 (MV-4-11 cells)	Structure (SMILES)	CK1α % Degradation at 1 μM (CK1α)	IC50 (PBMCs)	IKAROS % Degradation at 1 μM (IKAROS)	GSPT1 % Degradation at 1 μM (GSPT1; 1 μM)	viability at 1 µM (MOLM-13 cells [2])	IC50 (NHLF cells)	IC50 (THLE-2 cells)	IC50 concentration as fold of the IC50 concentration of Compound 1 (THLE-2 cells)	inhibition at 1 µM (TNFα)	fold induction at 1 µM (IL-2)	inhibition at 1 µM (IL-1β)
74.8 nM	19.6 nM	92%	93%		Cc1ccc(NCC(=O)NCc2ccc3c(c2)CN(C2CCC(=O)NC2=O)C3=O)cc1Cl (centres unmarked) [Compound 1, 2-((3-Chloro-4-methylphenyl)amino)-N-((2-(2,6-dioxopiperidin-3-yl)-1-oxoisoindolin-5-yl)methyl)acetamide]	B (a % degradation value of equal to or more than 25% and less than 50% (25%≤value<50%))	> 10000 nM	D (a % degradation value of equal to or more than 75% (value≥75%))	D (a % degradation value of equal to or more than 75% (value≥75%))	> 90%	> 10000 nM	> 10000 nM				
				about 1 fold	CC(C)(C)c1ccc(NCC(=O)NCc2ccc3c(c2)CN(C2CCC(=O)NC2=O)C3=O)cc1 (centres unmarked) [Compound 17, 2-((4-(tert-butyl)phenyl)amino)-N-((2-(2,6-dioxopiperidin-3-yl)-1-oxoisoindolin-5-yl)methyl)acetamide]	C (a % degradation value of equal to or more than 50% and less than 75% (50%≤value<75%))		C (a % degradation value of equal to or more than 50% and less than 75% (50%≤value<75%))	D (a % degradation value of equal to or more than 75% (value≥75%))	60 to 90%			about 1.5 fold			
				about 0.5 fold	Cc1ccc(NCC(=O)NCc2ccc3c(c2)CN(C2CCC(=O)NC2=O)C3=O)cc1N(C)C (centres unmarked) [Compound 18, 2-((3-(dimethylamino)-4-methylphenyl)amino)-N-((2-(2,6-dioxopiperidin-3-yl)-1-oxoisoindolin-5-yl)methyl)acetamide]	B (a % degradation value of equal to or more than 25% and less than 50% (25%≤value<50%))			D (a % degradation value of equal to or more than 75% (value≥75%))	> 90%			about 1 fold	30 to 50%	≤ 1	30 to 50%
0.65 nM	1.87 nM	82%	98%		Cc1ccc(NC(=O)NCc2ccc3c(c2)CN(C2CCC(=O)NC2=O)C3=O)cc1Cl (centres unmarked) [Compound A, reference compound]		6 nM				31.7 nM	6.11 nM				
